As usually defined, the pKa is the pH at which an ionisable group is half protonated. Lower therefore signals a stronger acid or weaker base.

The structures appear in SMILES notation.

Under “basic group”, `CN1CCC[NH+](C)Cc2ccccc2OCCOc2ccccc2C1` displayed a pKa of 7.92.
Take `CCOCCNc1ccc(Cl)cc1`: the pKa (basic group) stood at 3.28.
Compound `CN(C)CCCN(C)CCC[NH+](C)C` registered a pKa (basic group) of 9.
`CCc1c(O)nn(-c2ccccc2)c1C` returned a pKa (acidic group) of 12.3.
As for `CN(C)c1ccc(NC(=O)/C=N/O)cc1`, the pKa was 9.26 (acidic group) and 4.94 (basic group).
`c1ccc(-c2ccncc2)nc1` registered a pKa (basic group) of 4.77.
Take `N#Cc1ccccc1-c1nnn[nH]1`: the pKa (acidic group) amounted to 3.55.
Under “acidic group”, `NNC(=O)C(F)(F)C(F)(F)C(F)(F)F` came in with a pKa of 8.02.
Turning to `COc1ccc2c(c1O)CN(C)CCc1cc3c(cc1C(=O)C2)OCO3`, where the note is “basic group”, the pKa stood at 9.
`Cc1[nH]cnc1CSCCNC(=[NH2+])NCCCc1c[nH]c[nH+]1` yielded a pKa (basic group) of 6.41.
As for `[NH3+]CCCCCCCCCCCC(=O)O`, the pKa (acidic group) turned out to be 4.65.
`O=C(O)c1cccc[n+]1[O-]` came in with a pKa (acidic group) of 3.54.
`Cc1ccc([N+](=O)[O-])c2c(NCCC[NH+](C)C)c3ccccc3nc12`: where the note is “basic group”, the pKa was determined as 6.29.
`COc1ccc(/C=C/C(=O)O)cc1`: the pKa (acidic group) amounted to 4.6.
`CC(=O)SCCN(C)C` yielded a pKa (basic group) of 8.27.
As for `Cc1cnc2c(ccc3c(C)ccnc32)c1C`, the pKa (basic group) was 5.99.
In the case of `NCC(N)C[NH3+]`, for the setting “basic group”, the pKa was found to be 7.95.
`N#CC(C#N)=C(N)C(C#N)C#N` came in with a pKa (acidic group) of 2.58.
Turning to `CC(=O)Nc1ccc(C2CCC[NH+]2C)cn1` (stereo not given), the pKa (basic group) worked out at 2.2.
With `O=S(=O)(Nc1cccc(F)c1)c1ccccc1`, the pKa (acidic group) was 7.54.
Where the note is “basic group”, `Cc1ccc(CNCC[NH3+])cc1` displayed a pKa of 6.51.
As for `c1ccc(CC2CCCN2)cc1` (stereo not given), the pKa (basic group) is 10.3.
Same read-out and setting: then `CN1CC[C@]23c4c5ccc(OCc6ccccc6)c4O[C@H]2[C@@H](O)C=C[C@H]3[C@H]1C5`, with 8.07; and `CCCCSCCN(CC)CC`, with 8.43.
In turn, `O=C(O)Cc1ccco1` displayed a pKa (acidic group) of 3.72.
For the compound `NC1=N[C@H]2C[C@@H](N1)N[C@@H]2C(=O)[O-]`, the pKa (basic group) was found to be 12.6.
Still for that read-out and setting: then `COc1ccc(C=O)cc1C(=O)N[C@@H]1C[C@H]2CC[C@@H](C1)N2Cc1ccccc1`, with 8.74; and `CCCCCCN(CCO)CC(O)CC` (stereo not given), with 9.1; and `Cc1cc(N)cc(C)c1C`, with 5.15.
The compound `CN1Cc2[nH]cnc2N(C)C1=O` had a pKa (acidic group) of 11.2.
As for `[NH3+]CCCCCCCCCCC(=O)O`, where the note is “acidic group”, the pKa amounted to 4.62.
For the setting “basic group”, `c1ccc(CNc2nccs2)cc1` returned a pKa of 5.15.
The compound `NNC(=O)[C@@H](N)Cc1ccccc1` yielded a pKa (basic group) of 7.06.
Consider `CC(=O)/N=c1\ccccn1C`, for which the pKa (basic group) turned out to be 7.12.
For `[NH3+]CCc1ccccn1`, for the setting “basic group”, the pKa came to 3.93.
As to `[NH3+]CCc1cnc[nH]1`, where the note is “basic group”, the pKa worked out at 6.28.
`C[n+]1cccc2ccc(O)cc21` registered a pKa (acidic group) of 5.56.
As to `CC(C)c1ccc2c(c1)CC[C@H]1[C@](C)(C(=O)O)CCC[C@]21C`, the pKa (acidic group) was 5.7.
As for `CCN(CC)C(=S)NC(=O)c1ccc(Cl)cc1`, the pKa (acidic group) was determined as 8.
Take `Oc1ccc(-c2ccc(O)cc2)cc1`: where the note is “acidic group”, the pKa turned out to be 9.4.
In turn, `CN1CCCCC1` returned a pKa (basic group) of 10.1.
Same read-out and setting: then `O=C(Cc1ccc2ccc3cccnc3c2n1)c1ccccc1`, with 4.4; and `CC1CNCCN1` (stereo not given), with 9.9.
For the setting “acidic group”, `Cc1cccc(/C=C/C(=O)O)c1` returned a pKa of 4.44.
Turning to `CNCCC[NH2+]C`, the pKa (basic group) was 8.68.
`Cc1cc(=O)n(C)n1-c1ccccc1` yielded a pKa (basic group) of 2.4.
On the same count and under the same terms, then `CN(C)CCC(c1ccccc1)c1ccccc1`, with 9.4.
As to `Cc1c(C(=O)[O-])sc2cc(Cn3ccnc3)ccc12`, for the setting “basic group”, the pKa was 6.35.
`CCOC(=O)c1ccccc1-n1nc(O)cc1C` came in with a pKa (acidic group) of 12.3.
In turn, `O=C(O)c1ccc(Cl)cc1Cl` yielded a pKa (acidic group) of 2.74.
`CCC/C=C1\CCCN1C` gave a pKa (basic group) of 11.9.
As to `C#CC(C)(C)N(C)C(C)(C)C#C`, the pKa (basic group) was 6.65.
Regarding `OCCCc1ccccn1`, the pKa (basic group) came out at 5.71.
`C[N+](C)(C)CCCc1ccccc1O`: the pKa (acidic group) was 9.78.
Regarding `O=C(O)[C@H](P)CC[C@H](P)C(=O)O`, the pKa (acidic group) amounted to 3.54.
As to `Cc1ccccc1NC1CCCCC1`, where the note is “basic group”, the pKa was determined as 5.34.
For the setting “acidic group”, `O=C(O)c1cc[nH]n1` displayed a pKa of 3.84.
Compound `[S-]c1nccc[nH+]1` gave a pKa (basic group) of 1.3.
The compound `O=c1ccc2cc(O)c(O)cc2o1` gave a pKa (acidic group) of 7.63.
Turning to `Cc1cnc2c(ccc3cccnc32)c1C`, the pKa (basic group) stood at 5.62.
On to `OCc1nc2cc(Cl)ccc2[nH]1`, for which the pKa amounted to 11.5 (acidic group) and 4.63 (basic group).
The compound `CN1CC[C@]23c4c5ccc(O[C@@H]6O[C@H](C(=O)[O-])[C@@H](O)[C@H](O)[C@H]6O)c4O[C@H]2[C@@H](O)C=C[C@H]3[C@H]1C5` had a pKa (basic group) of 8.1.
`CC(C)C(=O)CC(=O)C(C)C` showed a pKa (acidic group) of 9.86.
Same read-out and setting: then `O=C(O)c1cccc([N+](=O)[O-])c1Cl`, with 2.02; and `C/C(C#[N+][O-])=N\O`, with 8.8.
Regarding `Cc1cccc(C)c1/C(=N/CCCN(C)C)c1ccccc1`, the pKa (basic group) worked out at 8.7.
Turning to `C1CCN(CCCN2CCCCC2)CC1`, the pKa (basic group) turned out to be 10.1.
Take `c1csc(C2CCCN2)c1` (stereo not given): the pKa (basic group) was 9.35.
`O=C(O)[C@H]1C[C@@H]1c1cccc(Cl)c1` registered a pKa (acidic group) of 4.51.
Consider `c1ccc(C2CN2)cc1` (stereo not given), for which the pKa (basic group) is 6.47.
`[O-]c1ccc(O)n[nH+]1` registered a pKa (acidic group) of 5.73.
For the setting “basic group”, `Cc1ccccc1C(=NCCN(C)C)c1ccccc1C` registered a pKa of 8.5.
Under “acidic group”, `O=S(=O)(O)c1cccc(C(F)(F)F)c1` returned a pKa of -6.93.
On to `CC(C)CNCC(=O)[O-]`, for which the pKa (basic group) was found to be 10.1.
`COC(=O)c1ccc2ccccc2n1` had a pKa (basic group) of 1.75.
As for `CC(C)(N)Cc1ccccc1`, the pKa (basic group) was 10.1.
Regarding `O=C(O)c1cc([N+](=O)[O-])ccc1Sc1ccccc1`, the pKa (acidic group) amounted to 3.22.
The same measure, in the same setting: then `NC(=O)CS`, with 8.22.
In the case of `c1nc2cc3c(cc2[nH]1)CCCC3`, the pKa by setting is: (acidic group) 13.3; (basic group) 5.98.
For `NCCc1ccccn1`, for the setting “basic group”, the pKa was 9.51.
`COc1cccc(-c2nnn[nH]2)c1` displayed a pKa (acidic group) of 3.91.
Where the note is “basic group”, `COc1ccc(-c2cn3cccnc3n2)c(OC)c1` came in with a pKa of 4.34.
Compound `Cc1cc(N)c2ccccc2n1` had a pKa (basic group) of 9.44.
On to `Cc1cc(N)ncn1`, for which the pKa (basic group) came out at 6.25.
The same measure, in the same setting: then `C[C@@H]1[C@@H](N)[C@H]1N`, with 8.98.
In the case of `Oc1cc(O)c2ccccc2[nH+]1`, for the setting “acidic group”, the pKa is 0.76.
Where the note is “basic group”, `N[C@@H]1CCCC[C@@H]1O` returned a pKa of 9.72.
For the setting “acidic group”, `CC1(C)C=CC(C)(c2cc3ccc(=O)oc3cc2O)CC1` (stereo not given) returned a pKa of 8.12.
Where the note is “acidic group”, `C[C@H]([NH3+])CCC(=O)O` showed a pKa of 4.13.
In turn, `NCCCN` returned a pKa (basic group) of 10.6.
For `CCCCNCC(=O)Nc1c(C)cccc1C`, the pKa (basic group) was 8.04.
Take `COCc1ccc(C(=O)O)cc1`: the pKa (acidic group) worked out at 4.18.
`CC[NH+](CC)CCNc1nc(C)cc(Nc2ccc(Cl)cc2)n1` came in with a pKa (basic group) of 6.69.
Compound `O=C(O)[C@@H]1CCCN1C(=O)[C@@H]1CCC[NH2+]1` registered a pKa (acidic group) of 3.16.
Under “acidic group”, `O=C(O)Cc1ccoc1` had a pKa of 4.07.
Same read-out and setting: then `O=C1C=CC(=NO)C=C1`, with 6.36.
Regarding `c1ccc(-c2ccoc2)nc1`, the pKa (basic group) stood at 4.65.

These data come from the pKa sets of Baltruschat and Czodrowski (2020).
